Here are results for 28 compounds from patent publication US20240025892A1 (priority 2020, published 2024).

SMILES strings stand for the structures. Like-named read-outs stand apart in the source and are kept apart here. Where only a bound is given, the exact number is not on record here.

The target in one data set is Recombinant SIK2 (Homo sapiens (Human), UniProt Q9H0K1). As to the kind of experiment: biochemical. The method, then: Assays were performed in base reaction buffer (20 mM Hepes (pH 7.5), 10 mM MgCl2, 1 mM EGTA, 0.02% Brij35, 0.02 mg/mL BSA, 0.1 mM Na3VO4, 2 mM DTT, 1% DMSO). Compounds were dissolved in 100% DMSO in a 10 mM stock. […] Assays were performed for 20 minutes at room temperature, after which time ^33P-ATP (10 μCi/μL) was added followed by incubation for another 120 minutes at room temperature. Thereafter, radioactivity incorporated into the pEY peptide substrate was detected by filter-binding method. Kinase activity data were expressed as the percent remaining kinase activity in test samples compared to DMSO reactions. IC50 values and curve fits were obtained using Prism (GraphPad Software).
Sequence of Recombinant SIK2 (Q9H0K1 whole entry): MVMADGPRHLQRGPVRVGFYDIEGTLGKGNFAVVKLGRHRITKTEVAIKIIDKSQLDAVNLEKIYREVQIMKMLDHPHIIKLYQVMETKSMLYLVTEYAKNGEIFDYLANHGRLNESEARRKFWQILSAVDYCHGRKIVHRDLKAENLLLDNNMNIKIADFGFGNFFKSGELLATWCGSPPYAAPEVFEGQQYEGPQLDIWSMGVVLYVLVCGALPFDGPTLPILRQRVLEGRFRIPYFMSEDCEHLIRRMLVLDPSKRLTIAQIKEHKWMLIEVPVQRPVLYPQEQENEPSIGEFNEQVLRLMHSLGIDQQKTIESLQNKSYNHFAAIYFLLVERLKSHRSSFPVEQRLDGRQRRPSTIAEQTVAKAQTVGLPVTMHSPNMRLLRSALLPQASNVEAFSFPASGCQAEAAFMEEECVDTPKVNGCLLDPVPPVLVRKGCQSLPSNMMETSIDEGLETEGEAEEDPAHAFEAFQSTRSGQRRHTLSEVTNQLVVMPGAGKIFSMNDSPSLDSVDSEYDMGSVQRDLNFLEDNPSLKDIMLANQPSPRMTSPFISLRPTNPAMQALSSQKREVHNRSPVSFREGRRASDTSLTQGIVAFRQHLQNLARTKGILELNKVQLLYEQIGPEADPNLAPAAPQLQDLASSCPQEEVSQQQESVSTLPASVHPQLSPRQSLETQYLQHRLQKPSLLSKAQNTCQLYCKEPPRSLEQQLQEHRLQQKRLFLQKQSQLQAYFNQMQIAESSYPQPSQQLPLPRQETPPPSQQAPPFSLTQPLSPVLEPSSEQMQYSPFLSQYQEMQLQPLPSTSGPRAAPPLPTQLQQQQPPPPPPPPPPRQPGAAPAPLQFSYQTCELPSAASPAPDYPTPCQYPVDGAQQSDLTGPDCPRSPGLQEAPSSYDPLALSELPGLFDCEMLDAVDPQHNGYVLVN

The subject of another data set is RANKL. The experiment in a line: RANKL gene expression in Ocy454 cells (RT-qPCR).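 Further: Ocy454 cells moved to 37 °C for osteocytic differentiation before compound exposure, RANKL mRNA by SYBR Green qRT-PCR, 2^−ΔΔCT with β-actin normalization, duplicate wells.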 The conditions noted are these: maximal RANKL fold induction versus DMSO, four hours.
The next data set relates to CRTC2 (TORC2). As to the kind of experiment: CRTC2 nuclear translocation (PathHunter U2OS). It is filed as cell-based. The settings on record: maximal CRTC2 nuclear translocation, U2OS cells, 90 minutes, maximum dose 10 μM. An excerpt:
PathHunter® Nuclear Translocation cell lines are engineered to co-express two fusion proteins: a) Enzyme Donor (ED) tagged target protein; b) an Enzyme Acceptor (EA) tagged TAZ domain, derived from the CBP/P300 transcription factor, that localizes to the nucleus. Activation of the signaling pathway induces translocation of the ED-tagged target protein into the nucleus, which will force complementation of the two enzyme fragments, and result in the formation of a functional enzyme that will hydrolyze substrate and generate a chemiluminescent signal. U2OS CRTC2 (TORC2) translocation assays were performed in 384 well plates at Eurofins DiscoverX (Freemont, CA). Cells were treated with compounds for 90 minutes in experimental duplicates in 5 point dose response format (4-fold serial dilutions with a maximum dose of 10 μM) followed by […] readout on an Envision 2104 Multilabel Reader. In all experiments, forskolin was used as a positive control and maximal CRTC2 nuclear translocation induced by each compound is expressed as a percentage of the signal stimulated by forskolin.
Representative data are shown in FIG. 4A and presented as percent of the positive control (forskolin) signal.

Where [1] appears, read: recombinant SIK2 2.5 nM, 1 μM ATP, read-out: SIK2 IC50.

Consider `COc1cc(-c2cnc3cc(-c4cnn(C5CC5)c4)ccn23)cc(OC)c1C(=O)NN` [Cmpd. 55A, 4-(7-(1-cyclopropyl-1H-pyrazol-4-yl)imidazo[1,2-a]pyridin-3-yl)-2,6-dimethoxybenzohydrazide], for which the IC50 at Recombinant SIK2 (initial in vitro testing, read-out: SIK2 inhibition IC50) is less than 0.0001 µM.
Consider `Cc1cn(-c2cccc3ccc(-n4cnc5cc(OCC6(C)COC6)ccc54)nc23)cn1` [Example 1, 8-(4-Methylimidazol-1-yl)-2-[5-[(3-methyloxetan-3-yl)methoxy]benzimidazol-1-yl]quinoline], for which the IC50 on Recombinant SIK2 (setting [1]) turned out to be 0.0307 µM. Besides, the “RANKL Fold Induction” value in the data set on RANKL is given as 3.08 fold.
For `CC1(COc2ccc3c(c2)ncn3-c2ccc3cccc(N4CCC5(CCNC5)C4)c3n2)COC1` (stereo not shown) [Example 6, 2-(5-((3-methyloxetan-3-yl)methoxy)-1H-benzo[d]imidazol-1-yl)-8-(2,7-diazaspiro[4.4]nonan-2-yl)quinoline], the IC50 on Recombinant SIK2 (setting [1]) turned out to be 0.00575 µM. In the data set on CRTC2 (TORC2), the “CRTC2 Efficacy (% of forskolin)” value is on record as 127.8 % of forskolin.
As for `CC1(COc2ccc3c(c2)ncn3-c2ccc3cccc(OC4CNC4)c3n2)COC1` [Example 9, 8-(azetidin-3-yloxy)-2-(5-((3-methyloxetan-3-yl)methoxy)-1H-benzo[d]imidazol-1-yl)quinoline], on Recombinant SIK2 (setting [1]), the IC50 was determined as 0.0246 µM. Further, in the data set with RANKL, the “RANKL Fold Induction” value came out at 9.69 fold.
Taken in the same sequence, the figures for `CN1CC(Oc2cccc3ccc(-n4cnc5cc(OCC6(C)COC6)ccc54)nc23)C1` [Example 11, 8-((1-Methylazetidin-3-yl)oxy)-2-(5-((3-methyloxetan-3-yl)methoxy)-1H-benzo[d]imidazol-1-yl)quinoline] were 0.0227 µM and 1.38 fold.
Regarding `CC1(COc2ccn3c(-c4ccc5cccc(N6CCC(N)CC6)c5n4)cnc3c2)COC1` [Example 13, 1-(2-(7-((3-Methyloxetan-3-yl)methoxy)imidazo[1,2-a]pyridin-3-yl)quinolin-8-yl)piperidin-4-amine], the IC50 on Recombinant SIK2 (setting [1]) turned out to be 0.00419 µM. In addition, the “CRTC2 Efficacy (% of forskolin)” value with CRTC2 (TORC2) is recorded as 140.6 % of forskolin.
For the compound `Cn1cnc(-c2cccc3ccc(-n4cnc5cc(OCC6(C)COC6)ccc54)nc23)c1` [Example 18, 8-(1-Methyl-1H-imidazol-4-yl)-2-(5-((3-methyloxetan-3-yl)methoxy)-1H-benzo[d]imidazol-1-yl)quinoline], the IC50 at Recombinant SIK2 (setting [1]) was determined as 0.185 µM. The “RANKL Fold Induction” value in the data set with RANKL is 7.49 fold.
As for `N#Cc1ccc(-c2cnc3cc(C(=O)NCc4ccnnc4)ccn23)cc1` [Example 20, 3-(4-cyanophenyl)-N-(pyridazin-4-ylmethyl)imidazo[1,2-a]pyridine-7-carboxamide], the IC50 at Recombinant SIK2 (setting [1]) came out at 0.109 µM. Besides, the “CRTC2 Efficacy (% of forskolin)” value with CRTC2 (TORC2) is on record as 9.4 % of forskolin.
The like results for `N#Cc1ccc(-c2cnc3cc(C(=O)NCc4cnccn4)ccn23)cc1` [Example 21, 3-(4-cyanophenyl)-N-(pyrazin-2-ylmethyl)imidazo[1,2-a]pyridine-7-carboxamide] were, in that order, 0.118 µM and 9.9 % of forskolin.
Taken in the same sequence, the figures for `N#Cc1ccc(-c2cnc3cc(C(=O)NCc4ccco4)ccn23)cc1` [Example 27, 3-(4-cyanophenyl)-N-(furan-2-ylmethyl)imidazo[1,2-a]pyridine-7-carboxamide] were 0.132 µM and 5.3 % of forskolin.
Taken in the same sequence, the figures for `Cc1ccc(CN(C)C(=O)c2ccn3c(-c4ccc(C#N)cc4)cnc3c2)cn1` [Example 30, 3-(4-Cyanophenyl)-N-methyl-N-((6-methylpyridin-3-yl)methyl)imidazo[1,2-a]pyridine-7-carboxamide] were 1.7 µM and 1.7 % of forskolin.
Regarding `N#Cc1ccc(-n2cnc3cc(C(=O)NCc4cccnc4)ccc32)cc1` [Example 32, 1-(4-cyanophenyl)-N-(3-pyridylmethyl)benzimidazole-5-carboxamide], the “CRTC2 Efficacy (% of forskolin)” value with CRTC2 (TORC2) was 10.6 % of forskolin.
In the case of `N#Cc1ccc(-n2cnc3cc(C(=O)NCc4nc5ccccc5[nH]4)ccc32)cc1` [Example 34, N-((1H-benzo[d]imidazol-2-yl)methyl)-1-(4-cyanophenyl)-1H-benzo[d]imidazole-5-carboxamide], on Recombinant SIK2 (setting [1]), the IC50 is 0.02 µM. The “CRTC2 Efficacy (% of forskolin)” value in the data set on CRTC2 (TORC2) was 14 % of forskolin.
Taken in the same sequence, the figures for `N#Cc1ccc(-c2cnc3nc(C(=O)NCc4cccnc4)ccn23)cc1` [Example 36, 3-(4-cyanophenyl)-N-(3-pyridylmethyl)imidazo[1,2-a]pyrimidine-7-carboxamide] were 5.3 µM and 2.5 % of forskolin.
As to `COc1cc(-c2cnc3cc(OCC4(C)COC4)ccn23)cc(OC)c1C#N` [Example 40, 2,6-dimethoxy-4-(7-((3-methyloxetan-3-yl)methoxy)imidazo[1,2-a]pyridin-3-yl)benzonitrile], the IC50 at Recombinant SIK2 (setting [1]) was 0.00987 µM.
For `CCn1cc(-c2ccc3c(c2)ncn3-c2ccc(C#N)cc2)cn1` [Example 43, 4-[5-(1-Ethylpyrazol-4-yl)benzimidazol-1-yl]benzonitrile], the half-inhibitory concentration (IC50) at Recombinant SIK2 (setting [1]) was found to be 0.00589 µM. Also, in the data set with RANKL, the “RANKL Fold Induction” value was 7.09 fold.
With `N#Cc1ccc(-n2cnc3cc(-c4cnn(C5CC5)c4)ccc32)cc1` [Example 44, 4-(5-(1-Cyclopropyl-1H-pyrazol-4-yl)-1H-benzo[d]imidazol-1-yl)benzonitrile], the IC50 at Recombinant SIK2 (setting [1]) came to 0.00234 µM. For the same compound, the “RANKL Fold Induction” value in the data set with RANKL worked out at 3.07 fold.
On to `CCn1cc(-c2ccn3c(-c4ccc(C#N)nc4)cnc3c2)cn1` [Example 46, 5-(7-(1-ethyl-1H-pyrazol-4-yl)imidazo[1,2-a]pyridin-3-yl)picolinonitrile], for which the IC50 on Recombinant SIK2 (setting [1]) came out at 0.014 µM. In addition, in the data set with RANKL, the “RANKL Fold Induction” value is 3.44 fold.
As to `N#Cc1ccc(-c2cnc3cc(-n4cnc(C5CC5)c4)ccn23)cc1` [Example 48, 4-[7-(4-Cyclopropylimidazol-1-yl)imidazo[1,2-a]pyridin-3-yl]benzonitrile], on Recombinant SIK2 (setting [1]), the IC50 was 0.00765 µM.
On to `N#Cc1ccc(-c2cnc3cc(-c4cnn(C5COC5)c4)ccn23)cc1` [Example 50, 4-(7-(1-(oxetan-3-yl)-1H-pyrazol-4-yl)imidazo[1,2-a]pyridin-3-yl)benzonitrile], for which the IC50 at Recombinant SIK2 (setting [1]) was 0.00234 µM. Besides, in the data set with RANKL, the “RANKL Fold Induction” value was found to be 15.84 fold.
Taken in the same sequence, the figures for `N#Cc1ccc(-c2cnn3cc(-c4cnn(C5CC5)c4)ccc23)cc1` [Example 54, 4-(6-(1-cyclopropyl-1H-pyrazol-4-yl)pyrazolo[1,5-a]pyridin-3-yl)benzonitrile] were 0.00224 µM and 9.07 fold.
Regarding `CCc1nnc(-c2c(F)cc(-c3cnc4cc(-c5cnn(C)c5)ccn34)cc2F)o1` [Example 58, 2-(2,6-difluoro-4-(7-(1-methyl-1H-pyrazol-4-yl)imidazo[1,2-a]pyridin-3-yl)phenyl)-5-ethyl-1,3,4-oxadiazole], the IC50 on Recombinant SIK2 (setting [1]) stood at 1.08 µM. Further, the “RANKL Fold Induction” value in the data set on RANKL is listed as 1.26 fold.
Turning to `CCc1nnc(-c2c(Cl)cc(-c3cnc4cc(-c5cnn(C)c5)ccn34)cc2Cl)o1` [Example 59, 2-(2,6-dichloro-4-(7-(1-methyl-1H-pyrazol-4-yl)imidazo[1,2-a]pyridin-3-yl)phenyl)-5-ethyl-1,3,4-oxadiazole], the IC50 on Recombinant SIK2 (setting [1]) was determined as 0.27 µM.
On to `CCn1cc(-c2cnc3c(-c4ccc(C#N)cc4)cnn3c2)cn1` [Example 63, 4-[6-(1-Ethylpyrazol-4-yl)pyrazolo[1,5-a]pyrimidin-3-yl]benzonitrile], for which, on Recombinant SIK2 (setting [1]), the IC50 is 0.0034 µM. The “RANKL Fold Induction” value with RANKL came to 0.89 fold.
The like results for `N#Cc1ccc(-c2cnn3cc(-c4cnn(C5CC5)c4)cnc23)cc1` [Example 64, 4-[6-(1-Cyclopropylpyrazol-4-yl)pyrazolo[1,5-a]pyrimidin-3-yl]benzonitrile] were, in that order, 0.0088 µM and 0.47 fold.
Consider `CCn1cc(-c2c(OC)cc(-c3cnn4cc(-c5cnn(C6CC6)c5)ccc34)cc2OC)nn1` [Example 65, 6-(1-Cyclopropylpyrazol-4-yl)-3-[4-(1-ethyltriazol-4-yl)-3,5-dimethoxy-phenyl]pyrazolo[1,5-a]pyridine], for which, on Recombinant SIK2 (setting [1]), the IC50 amounted to 0.0237 µM.
On the same count and under the same terms, as for `N#Cc1ccc(-c2cnc3cc(-c4cn(C5CC5)nn4)ccn23)cc1` [Example 66, 4-[7-(1-Cyclopropyltriazol-4-yl)imidazo[1,2-a]pyridin-3-yl]benzonitrile], the figure is 0.037 µM.
Consider `CCn1nnc(-c2ccn3c(-c4ccc(C#N)cc4)cnc3c2)n1` [Example 67, 4-[7-(2-Ethyltetrazol-5-yl)imidazo[1,2-a]pyridin-3-yl]benzonitrile], for which the IC50 on Recombinant SIK2 (setting [1]) turned out to be 0.227 µM. In the data set on RANKL, the “RANKL Fold Induction” value was found to be 0.47 fold.
